# Results taken from patent US9512176B2, “Age inhibitors” (Centre National de la Recherche Scientifique, priority 2005, dated 2016).
# Non-standard residues stand in square brackets, D forms with d. Residues, ends and D or L forms follow the SMILES beside them. Dap = NC[C@H](N)C(=O)O
# What was measured:
# Assay type in all cases: biochemical
# somatostatin-14 = assay: Somatostatin-14 modifications induced by methylglyoxal (HPLC); settings: somatostatin-14 0.03 mm, methylglyoxal 3.6 mM, compound 4.3 mM, 24 hours at 37° C.
# Description: FIGS. 9 and 10 present the results obtained by HPLC for two compounds according to the present invention, L-DAPA-L-Leu (example 1) and L-DAPA-L-Val (example 23), on somatostatin-14 modifications induced by methylglyoxal. HPLC conditions are as follows: C-18, Symmetry 300 (4.6×250 mm) column, injection volume 100 μl of reaction mixture; flow 1 ml/min; solvent A: H2O+0.1% TFA; solvent B: 80/20 CH3CN/H2O+0.1% TFA; linear gradient: from 20% B to 60% B in 15 minutes and isocratic from 60% B for 10 minutes; ambient temperature; detection: PDA (chromatograms extracted at 215 nm).
# In these figures, (a) represents the results of somatostatin-14 alone; (b) represents the results of somatostatin-14+methylglyoxal; (c) represents the results of somatostatin-14+methylglyoxal+L-DAPA-L-Val (example 23) and (d) represents the results of somatostatin-14+methylglyoxal+L-DAPA-L-Leu (example 1).
# Human insulin = assay: Modification of insulin by methylglyoxal (HPLC); settings: insulin 0.034 mM, methylglyoxal 3.4 mM, scavenger 4.08 mM, pH 7.45, 37° C.
# Description: FIG. 1 presents the comparative effects of dicarbonyl scavengers in the form of dihydrochloride according to the present invention and the comparison with DAPA on the modification of insulin (Ins) by methylglyoxal (MG). The percentage of insulin is indicated following incubation with methylglyoxal in the presence or absence of dicarbonyl scavengers. Insulin (0.034 mM) is incubated in vitro in a 10 mM phosphate buffer, pH 7.45 (containing 0.1 M NaCl) with methylglyoxal (3.4 mM) in the presence of dicarbonyl scavengers (4.08 mM) for 21 hours at 37° C. Insulin concentration is measured by HPLC (same conditions as in FIG. 3).
# FIGS. 3 to 8 present the results obtained by HPLC for two compounds according to the present invention, L-DAPA-L-Leu (example 1) and L-DAPA-L-Val (example 23), on insulin modifications induced by methylglyoxal. It can be observed that these modifications are prevented. The HPLC conditions are as follows: C-18, Symmetry 300 (4.6×250 mm) column, injection volume 100 μl of reaction mixture; flow 1 ml/min; temperature 40° C.; solvent A: H2O+0.1% TFA; solvent B: 60/40 CH3CN/H2O+0.1% TFA; linear gradient of 50% B to 55% B in 15 minutes; detection: UV at 215 nm: PDA (chromatograms extracted at 220 nm).
# Human insulin (Ins) is incubated with methylglyoxal (MG) under physiological conditions. After 24 hours, the insulin is completely modified, as illustrated in FIG. 1 (Ins+MG).
# On the other hand, insulin is incubated with methylglyoxal in the presence of an equimolar quantity of the AGE inhibitors according to the present invention under physiological conditions.
# lysozyme = assay: SDS PAGE electrophoresis of lysozyme incubated with methylglyoxal and inhibitor; settings: lysozyme 10 mg/ml, methylglyoxal 10 mM, inhibitor equimolar, 37° C., 48 hours
# Description: Ribonuclease A and lysozyme (10 mg/ml) are incubated in the presence of methylglyoxal (10 mM) or in the presence of methylglyoxal and one of the inhibitors according to the present invention in an equimolar quantity at 37° C. After 48 hours of incubation, the proteins are analyzed by polyacrylamide gel electrophoresis (8%-16% SDS PAGE gel).
smiles,measurement,setting,value
"CC(C)C[C@H](NC(=O)[C@@H](N)CN)C(=O)O [example 1, L-DAPA-L-Leu.2HCl] (H-[Dap]-Leu-OH)",somatostatin-14 modifications induced by methylglyoxal,somatostatin-14,prevent the modifications induced by methylglyoxal
same,modification of insulin by methylglyoxal,Human insulin,prevented
same,protection from structural modifications (dimer form) caused by methylglyoxal,lysozyme,provides protection
